Measured values reported in patent US20240316196A1, “METHODS AND COMPOSITIONS FOR DIFFERENTIATION OF PLURIPOTENT STEM CELLS AND DERIVED NATURAL KILLER CELLS” (NUWACELL BIOTECHNOLOGIES CO., LTD., priority 2022, published 2024).

Tests used:
hiPSCs = experiment: Directed differentiation of hiPSCs into HE (KDR+), HP (CD34+) and iNK (CD56+) cells, flow cytometry; type: cell-based, human; conditions: for output of CD34^+ HP cells / output of CD56^+ iNK cells: added during Stage 1-4 (XAV939 5 μM, SB431542 6 μM); for output of CD34^+ HP cells: Day 10, vs control without both (FIG. 8A); for output of CD56^+ iNK cells: Day 25, vs control without both (FIGS. 8B, 8C)
Method: hiPSCs were prepared as described in CN108373998B. The effect of plate coating during Stage 2 on iNK differentiation was further evaluated. On Day −1, Embryoid body (EB) formation (Stage 1-1) was carried out by placing individualized hiPSCs in E8 medium containing 10 μM Blebbistatin in T25 flasks on a bellydancer and culture overnight. On Day 0, lateral mesoderm differentiation (Stage 1-2) was initiated by changing the medium to a Stage 1-2 differentiation medium comprising CD34A basal medium and supplemented with BMP4 (25 ng/mL), VEGF (15 ng/mL), bFGF (0.5 ng/mL) and CHIR99021 (4 μM) for 2 days. On Day 2, lateral mesoderm differentiation (Stage 1-3) continued for 1 day in a Stage 1-3 differentiation medium comprising CD34A basal medium and supplemented with BMP4 (25 ng/mL), VEGF (15 ng/mL) and bFGF (0.5 ng/mL) and CHIR99021 (4 μM). On Day 3, HE specification (Stage 1-4) was initiated by adding a Stage 1-4 differentiation medium comprising CD34A basal medium and supplemented with insulin (5 μg/mL), VEGF (15 ng/mL), bFGF (5 ng/mL), SB431542 (6 μM) for 1 day. On Day 4 (the end of Stage 1-4), HP differentiation (Stage 1-5) in was initiated by adding a Stage 1-5 differentiation medium comprising CD34A basal medium and supplemented with SCF (10 ng/mL), Flt3L (10 ng/mL), VEGF (15 ng/mL) and bFGF (5 ng/mL). To initiate the differentiation from HP cells into iNK cells (Stage 2), EBs of Day 11 were collected and seeded in 24-well-plates without matrix or coated with DLL4 and VCAM1, in a Stage 2 differentiation medium comprising NKSFM and supplemented with SCF (20 ng/mL), Flt3L (10 ng/mL), IL-7 (25 ng/mL), IL-3 (5 ng/mL), IL-15 (10 ng/mL) for 14 days. On Day 25 (Stage 2-wk2), derived cells were counted and stained with CD56-PE antibody, the percentage of CD56+ iNK cells was detected by flow cytometry. […] The differentiation from hPSCs to immature iNK cells was accomplished in only 26 days. Furthermore, the percentage of CD56+CD3−iNK cells at the end of Stage 2 is as high as 80.56% when differentiation was performed with NKSFM and DLL4/VCAM1.
hiPSCs were prepared as described in CN108373998B. On Day −1, Embryoid body (EB) formation (Stage 1-1) was carried out by placing individualized hiPSCs in E8 medium containing 10 μM Blebbistatin in T25 flasks on a bellydancer and culture overnight. On Day 0, lateral mesoderm differentiation (Stage 1-2) was initiated by changing the medium to a Stage 1-2 differentiation medium comprising IF-4 basal medium and supplemented with BMP4 (25 ng/mL), VEGF (50 ng/mL), bFGF (0.5 ng/mL) and CHIR99021 (4 μM) for 2 days. On Day 2, lateral mesoderm differentiation (Stage 1-3) continued for 1 day in a Stage 1-3 differentiation medium comprising IF-4 basal medium and supplemented with BMP4 (25 ng/mL), VEGF (50 ng/mL) and bFGF (0.5 ng/mL) and CHIR99021 (1 μM). On Day 3, HE specification (Stage 1-4) was initiated by adding a Stage 1-4 differentiation medium comprising IF-4 basal medium and supplemented with VEGF (50 ng/mL), bFGF (5 ng/mL), and without or with XAV939 (5 μM) and/or SB431542 (6 μM) for 1 day. On Day 4, HP differentiation (Stage 1-5) was initiated by adding a Stage 1-5 differentiation medium comprising NKSFM and supplemented with SCF (50 ng/mL), Flt3L (10 ng/mL), VEGF (15 ng/mL) and bFGF (5 ng/mL) for 6 days. On Day 10 (the end of Stage 1), EBs were dissociated into single cells and stained with CD34-APC antibody (BD, #555824), the percentage of CD34^+ HP cells was detected by flow cytometry. To initiate the differentiation from HP cells into iNK cells (Stage 2), EBs were collected and seeded in 24-well-plates coated with matrix proteins, DLL4 and VCAM1, in a Stage 2 differentiation medium comprising NKSFM and supplemented with SCF (20 ng/mL), Flt3L (10 ng/mL), IL-7 (25 ng/mL), IL-3 (5 ng/mL), IL-2 (700 IU/mL), IL-15 (10 ng/mL) for 15 days. On Day 25 (the end of Stage 2), derived cells were counted and stained with CD56-PE antibody (BD, #555516), the percentage of CD56^+ iNK cells was detected by flow cytometry. […]

PBNK cells = experiment: Expansion of PBNK cells from PBMCs (NK cell expansion fold; CD56+CD3− % by flow cytometry); type: cell-based; conditions: NAM 0-5 mM in basal medium
Method: The effect of the concentration of nicotinamide (NAM) in an exemplary basal medium on NK cell expansion was evaluated. The above basal medium comprised the following components: IMDM (Sigma): RPMI1640 (Gibco) (50%: 50%); about 1.3 ng/mL of Cupric sulfate, about 3 μM of Ferric sulfate, about 0.432 μg/mL of Zinc sulfate, about 1-50 ng/mL of Na Selenite, about 110 μg/mL of Sodium pyruvate, 0.1-20 μg/mL of Insulin, 1-200 μg/mL of Transferrin, about 1%(v/v) of GlutaMAX-1, 0.1-20 mg/mL of HSA, 1-400 μM of MTG, about 80 μg/mL of Ascorbic acid and indicated concentration of NAM. Peripheral blood mononuclear cells (PBMCs) were isolated by density gradient centrifugation using Ficoll-Paque. On Day 0, PBMCs were plated at 1×10^6 cells/mL in a 48-well-plate in the basal medium with NAM (either 0, 1, 2, 2.5, 3, 3.5, 4, or 5 mM) and stimulated with the following reagents for 3 days: immobilized CD16 antibody (Biolegend, 302014) (135 ng/cm^2), IL-2 (700 IU/mL), IL-15 (10 ng/mL) and OK432 (0.01 KE/mL). On day 3, cells were re-suspended in the above basal medium supplemented with IL-2 (700 IU/mL) and IL-15 (10 ng/mL). Fresh medium was added every other day to maintain cell density below 2×10^6 cells/mL. Cells were collect on Day 14 and stained with CD56-PE and CD3-PerCP-Cy5.5 antibodies, the percentage of CD56^+CD3^− NK cells was analyzed by flow cytometry.
The effect of heparin sodium concentration in an exemplary NKSFM on NK cell expansion was also evaluated. NKSFM comprised the following components: IMDM (Sigma): DMEM/F12 (Gibco) (50%: 50%); about 20 μM of Ethanolamine, about 1-50 ng/mL of Na Selenite, about 110 μg/mL of Sodium pyruvate, 0.1-20 μg/mL of Insulin, 1-200 μg/mL of Transferrin, about 1%(v/v) of GlutaMAX-1, 0.1-20 mg/mL of Human serum albumin, 1-400 μM of MTG, about 80 μg/mL of Ascorbic acid, about 1-5 mM of NAM, 4%(v/v) of PLT, and indicated concentration of heparin sodium. PBMCs were isolated by density gradient centrifugation using Ficoll-Paque. On Day 0, PBMCs were plated at 1×10^6 cells/mL in a 48-well-plate in NKSFM with heparin sodium (0, 0.5, 1, 3, 10, 30, or 50 μg/mL) and stimulated with the following reagents for 3 days: immobilized CD16 antibody (Biolegend, 302014) (135 ng/cm^2), OK432 (0.01 KE/mL), NeoIL-2 (50 ng/mL), IL-12 (10 ng/mL), IL-18 (50 ng/mL). […] Cells were collect on Day 13 and stained with CD56-PE and CD3-PerCP-Cy5.5 antibodies, the percentage of CD56^+CD3^− NK cells was analyzed by flow cytometry. The specific lysis of K562 tumor cells by NK cells were assessed by CFSE/7-AAD cytotoxicity assay. […] After incubation for 4 hours, cells were stained with 7-AAD (Live/dead staining) and analyzed with flow cytometry.
The effect of PLT percentage (v/v) in an exemplary NKSFM on NK cell expansion was evaluated. […]

[1] = higher VEGF concentration during Stage 1-5

Cc1c[nH]c(-c2cnc(NCCNc3ccc(C#N)cn3)nc2-c2ccc(Cl)cc2Cl)n1 [CHIR99021]
differentiation into CD34+ HP cells (hiPSCs; higher concentration during Stage 1-2 (5, 6, 7, 8 μM), Day 7 (FIG. 9A)): generally more advantageous | differentiation into CD56+ iNK cells (hiPSCs; higher concentration during Stage 1-2 (5, 6, 7, 8 μM), Day 24 (FIGS. 9B, 9C)): somewhat disadvantageous | differentiation into CD34+ HP cells (hiPSCs; lower concentration during Stage 1-3 (0-4 μM), Day 7 (FIG. 10A)): somewhat disadvantageous | differentiation into CD56+ iNK cells (hiPSCs; lower concentration during Stage 1-3 (0-4 μM), Day 24 (FIGS. 10B, 10C)): generally more advantageous

NC(=O)c1cccnc1 [NAM, nicotinamide]
NK cell expansion fold, effect of concentration (PBNK cells; Day 14 (FIG. 2A)): significantly impacts | percentage of CD56^+CD3^− NK cells, effect of concentration (PBNK cells; Day 14 (FIG. 2B)): minimal effects

NC(=O)c1ccc(-c2nc(-c3ccc4c(c3)OCO4)c(-c3ccccn3)[nH]2)cc1 [SB431542]
output of CD34^+ HP cells (hiPSCs): improvement in increasing CD34^+ HP cell production at a certain degree | output of CD56^+ iNK cells (hiPSCs): does not show any improvement

Oc1nc(-c2ccc(C(F)(F)F)cc2)nc2c1CSCC2 [XAV939]
output of CD34^+ HP cells (hiPSCs): significantly promotes | output of CD56^+ iNK cells (hiPSCs): significantly promotes

VEGF
HP and iNK cell differentiation (hiPSCs; Example 12: higher concentration during Stage 1, especially Stage 1-2, 1-3 and 1-4 (Table 3.2, FIG. 12)): significantly improves | percentage of KDR+ HE cells, effect of concentration (hiPSCs; VEGF 15-100 ng/mL in Stage 1 substages (Table 3.1), Day 4 (FIG. 11A)): minimal effects | percentage of CD34+ HP cells, effect of concentration (hiPSCs; VEGF 15-100 ng/mL in Stage 1 substages (Table 3.1), Day 10 (FIG. 11B)): significantly impacts | efficiency of further differentiation into iNK cells, effect of concentration (hiPSCs; VEGF 15-100 ng/mL in Stage 1 substages (Table 3.1), Day 24 morphology (FIG. 11C)): significantly impacts | differentiation into HP cells and iNK cells (hiPSCs; higher VEGF concentration during Stage 1-2 and Stage 1-3): generally beneficial | differentiation into HP cells (hiPSCs; [1]): generally beneficial | differentiation into iNK cells (hiPSCs; [1]): not into iNK cells
